This passage reports IC50 results from PMC4290084, “Multiplex Imaging and Cellular Target Identification of Kinase Inhibitors via an Affinity-Based Proteome Profiling Approach” (Scientific Reports, 2015).

Each structure is given as a SMILES string.

In test [1] the target is T1, Aurora kinase A (AKA) (Homo sapiens, UniProt O14965).
T1 construct: gene AURKA; recombinant AKA
T1 sequence (O14965 1-403): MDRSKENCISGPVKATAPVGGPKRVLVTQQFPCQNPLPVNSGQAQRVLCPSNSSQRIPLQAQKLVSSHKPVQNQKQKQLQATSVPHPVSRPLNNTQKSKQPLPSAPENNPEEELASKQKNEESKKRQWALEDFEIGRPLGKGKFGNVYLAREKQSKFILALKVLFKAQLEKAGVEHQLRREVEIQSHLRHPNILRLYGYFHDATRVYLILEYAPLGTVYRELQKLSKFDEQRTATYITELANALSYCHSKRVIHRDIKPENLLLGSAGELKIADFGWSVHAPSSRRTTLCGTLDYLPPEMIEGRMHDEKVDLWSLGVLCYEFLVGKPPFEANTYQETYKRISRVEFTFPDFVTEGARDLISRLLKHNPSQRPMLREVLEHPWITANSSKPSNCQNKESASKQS
The experiment in a line: Kinase-Glo in vitro kinase inhibition assay with recombinant AKA. The class given is biochemical.

In test [2] the target is T1, Aurora kinase A (AKA). The test can be described thus: Kinase-Glo in vitro kinase inhibition assay with recombinant AKA; also photoaffinity labeling with PD/WB and IP in HeLa cells. The class given is biochemical.

With `C#CCNC(=O)c1ccc(Nc2ncc3c(n2)-c2ccc(Cl)cc2C(c2c(F)cccc2OC)=NC3)cc1OC` [MLN-1], the IC50 in test [1] came out at 23.3 ± 0.5 nM.

Regarding `COc1cc(Nc2ncc3c(n2)-c2ccc(Cl)cc2C(c2c(F)cccc2OC)=NC3)ccc1C(=O)NCCNC(=O)OC1CC/C=C/CCC1` (stereo not drawn) [MLN-3], the IC50 in test [1] came out at 67.2 ± 0.4 nM.

Take `C#CCCC1(CCNC(=O)c2ccc(Nc3ncc4c(n3)-c3ccc(Cl)cc3C(c3c(F)cccc3OC)=NC4)cc2OC)N=N1` [MLN-2]: the IC50 in test [2] was determined as 15.1 ± 0.5 nM.
